Values joined by “and” are separate entries in the source; they are usually repeats but may differ in a detail not shown here. Equal values may be shown once. Inconclusive results and toxic doses are left out.
Test system: L1210 leukemia ip in BDF1 mice, survival T/C
Assay: NCI In Vivo Anticancer Drug Screen. Data for tumor model L1210 Leukemia (intraperitoneal) in B6D2F1 (BDF1) mice
Conditions: endpoint: mean survival time, higher = longer survival
Outline: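 In this screen, tumor-bearing mice given compound are compared to those given vehicle, and their survival values are reported as a treated-to-control quotient.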

[1] = dose: 2.5 mg/kg/injection, schedule: Q01DX001 (ip), vehicle: saline
[2] = dose: 100.0 mg/kg/injection, schedule: Q01DX001 (ip), vehicle: saline
[3] = dose: 200.0 mg/kg/injection, schedule: Q01DX001 (ip), vehicle: saline
[4] = dose: 1.25 mg/kg/injection, schedule: Q01DX001 (ip), vehicle: saline
[5] = dose: 10.0 mg/kg/injection, schedule: Q01DX001 (ip), vehicle: saline
[6] = dose: 100.0 mg/kg/injection, schedule: Q01DX009 (ip), vehicle: saline with Tween-80
[7] = dose: 100.0 mg/kg/injection, schedule: Q04DX003 (ip), vehicle: saline with Tween-80
[8] = dose: 200.0 mg/kg/injection, schedule: Q01DX009 (ip), vehicle: saline with Tween-80
[9] = dose: 200.0 mg/kg/injection, schedule: Q04DX003 (ip), vehicle: saline with Tween-80
[10] = dose: 400.0 mg/kg/injection, schedule: Q04DX003 (ip), vehicle: saline with Tween-80

Clc1nnc(Cl)c(Cl)c1Cl
T/C (dose: 0.31 mg/kg/injection, schedule: Q01DX009 (ip), vehicle: saline): 101 % of control | T/C (dose: 0.5 mg/kg/injection, schedule: Q01DX Z (ip), vehicle: carboxymethylcellulose (CMC)): 98 % of control | T/C (dose: 0.62 mg/kg/injection, schedule: Q01DX009 (ip), vehicle: saline): 98 % of control | T/C (dose: 0.62 mg/kg/injection, schedule: Q04DX003 (ip), vehicle: acetone): 96 % of control | T/C (dose: 0.75 mg/kg/injection, schedule: Q01DX009 (ip), vehicle: saline): 104 % of control | T/C (dose: 1.0 mg/kg/injection, schedule: Q01DX Z (ip), vehicle: carboxymethylcellulose (CMC)): 96 % of control | T/C (dose: 1.25 mg/kg/injection, schedule: Q01DX009 (ip), vehicle: saline): 96 % of control | T/C (dose: 1.25 mg/kg/injection, schedule: Q04DX003 (ip), vehicle: acetone): 89 % of control | T/C (dose: 1.5 mg/kg/injection, schedule: Q01DX009 (ip), vehicle: saline): 97 % of control | T/C (dose: 1.8 mg/kg/injection, schedule: Q01DX009 (ip), vehicle: saline with Tween-80): 102 % of control | T/C (dose: 2.0 mg/kg/injection, schedule: Q01DX Z (ip), vehicle: carboxymethylcellulose (CMC)): 93 % of control | T/C [1]: 97 % of control | T/C (dose: 2.8 mg/kg/injection, schedule: Q01DX009 (ip), vehicle: saline with Tween-80): 108 % of control | T/C (dose: 3.0 mg/kg/injection, schedule: Q01DX009 (ip), vehicle: saline): 97 % of control | T/C (dose: 4.0 mg/kg/injection, schedule: Q01DX015 (ip), vehicle: carboxymethylcellulose (CMC)): 96 % of control | T/C (dose: 4.0 mg/kg/injection, schedule: Q01DX Z (ip), vehicle: carboxymethylcellulose (CMC)): 93 % of control | T/C (dose: 4.2 mg/kg/injection, schedule: Q01DX009 (ip), vehicle: saline with Tween-80): 94 % of control | T/C (dose: 8.0 mg/kg/injection, schedule: Q01DX015 (ip), vehicle: carboxymethylcellulose (CMC)): 93 % of control

O=c1oc2cc(N=Cc3ccc4c(c3)OCO4)ccc2c2ccccc12
T/C (dose: 100.0 mg/kg/injection, schedule: Q01DX001 (ip), vehicle: other): 91 % of control | T/C (dose: 200.0 mg/kg/injection, schedule: Q01DX001 (ip), vehicle: other): 93 % of control | T/C (dose: 400.0 mg/kg/injection, schedule: Q01DX001 (ip), vehicle: other): 90 % of control

CCN(CC)CC(OC(=O)C(c1ccccc1)c1ccccc1)C(COC)OC (configuration not stated)
T/C (dose: 55.0 mg/kg/injection, schedule: Q01DX Z (ip), vehicle: saline): 109 % of control | T/C (dose: 83.0 mg/kg/injection, schedule: Q01DX Z (ip), vehicle: saline): 96 % of control | T/C (dose: 125.0 mg/kg/injection, schedule: Q01DX Z (ip), vehicle: saline): 91 % of control

COc1cc(C2C(C(=O)OC/C=C/c3ccc4c(c3)OCO4)C(c3cc(OC)c(OC)c(OC)c3)C2C(=O)OC/C=C/c2ccc3c(c2)OCO3)cc(OC)c1OC (configuration not stated)
T/C (dose: 100.0 mg/kg/injection, schedule: Q01DX001 (ip), vehicle: carboxymethylcellulose (CMC)): 90 % of control | T/C (dose: 200.0 mg/kg/injection, schedule: Q01DX001 (ip), vehicle: carboxymethylcellulose (CMC)): 95 % of control | T/C (dose: 400.0 mg/kg/injection, schedule: Q01DX001 (ip), vehicle: carboxymethylcellulose (CMC)): 88 % of control

O=C(/C=C/C(=O)n1ccc2ccccc21)n1ccc2ccccc21
T/C (dose: 50.0 mg/kg/injection, schedule: Q01DX001 (ip), vehicle: saline): 95 % of control | T/C [2]: 95 % of control | T/C [3]: 101 % of control | T/C (dose: 400.0 mg/kg/injection, schedule: Q01DX001 (ip), vehicle: saline): 95 % of control

COCCOC1=C(N2CC2)C(=O)C(OCCOC)=C(N2CC2)C1=O
T/C (dose: 0.09 mg/kg/injection, schedule: Q01DX009 (ip), vehicle: saline): 96 % of control | T/C (dose: 0.17 mg/kg/injection, schedule: Q01DX009 (ip), vehicle: saline): 106 % of control | T/C (dose: 0.33 mg/kg/injection, schedule: Q01DX009 (ip), vehicle: saline): 153 % of control | T/C (dose: 0.66 mg/kg/injection, schedule: Q01DX009 (ip), vehicle: saline): 183 % of control | T/C (dose: 1.0 mg/kg/injection, schedule: Q01DX Z (ip), vehicle: saline): 117 % of control | T/C [4]: 112 % of control | T/C (dose: 1.32 mg/kg/injection, schedule: Q01DX009 (ip), vehicle: saline): 150 % of control | T/C (dose: 2.0 mg/kg/injection, schedule: Q01DX Z (ip), vehicle: saline): 150 % of control | T/C (dose: 2.27 mg/kg/injection, schedule: Q01DX009 (ip), vehicle: saline): 153 % of control | T/C (dose: 3.0 mg/kg/injection, schedule: Q01DX001 (ip), vehicle: saline): 110 % of control | T/C (dose: 3.78 mg/kg/injection, schedule: Q01DX009 (ip), vehicle: saline): 195 % of control | T/C (dose: 4.0 mg/kg/injection, schedule: Q01DX Z (ip), vehicle: saline): 150 % of control | T/C (dose: 5.55 mg/kg/injection, schedule: Q01DX001 (ip), vehicle: saline): 106 % of control | T/C (dose: 6.0 mg/kg/injection, schedule: Q01DX001 (ip), vehicle: saline): 119 % of control | T/C (dose: 6.3 mg/kg/injection, schedule: Q01DX009 (ip), vehicle: saline): 185 % of control | T/C (dose: 8.0 mg/kg/injection, schedule: Q01DX Z (ip), vehicle: saline): 91 % of control | T/C [5]: 150 % of control and 176 % of control

c1ccc2c(c1)CCc1ccccc1CNC2
T/C (dose: 25.0 mg/kg/injection, schedule: Q04DX002 (ip), vehicle: Klucel (hydroxypropylcellulose) (HPC)): 111 % of control | T/C (dose: 50.0 mg/kg/injection, schedule: Q04DX002 (ip), vehicle: Klucel (hydroxypropylcellulose) (HPC)): 106 % of control

N=C(N)c1ncn(C2CC(O)C(CO)O2)c1N (configuration not stated)
T/C [2]: 106 % of control | T/C [3]: 103 % of control

O=NO.O=N[O-].O=N[O-].[Co+3].[NH2-].[NH2-].[NH2-].[NH2-]
T/C (dose: 12.0 mg/kg/injection, schedule: Q01DX009 (ip), vehicle: Klucel (hydroxypropylcellulose) (HPC)): 100 % of control | T/C (dose: 25.0 mg/kg/injection, schedule: Q01DX009 (ip), vehicle: Klucel (hydroxypropylcellulose) (HPC)): 107 % of control | T/C (dose: 25.0 mg/kg/injection, schedule: Q04DX003 (ip), vehicle: Klucel (hydroxypropylcellulose) (HPC)): 103 % of control | T/C (dose: 50.0 mg/kg/injection, schedule: Q01DX009 (ip), vehicle: Klucel (hydroxypropylcellulose) (HPC)): 102 % of control | T/C (dose: 50.0 mg/kg/injection, schedule: Q04DX003 (ip), vehicle: Klucel (hydroxypropylcellulose) (HPC)): 96 % of control | T/C (dose: 100.0 mg/kg/injection, schedule: Q04DX003 (ip), vehicle: Klucel (hydroxypropylcellulose) (HPC)): 94 % of control and 110 % of control

CC1(C)Cc2cc3cc(Cl)ccc3nc2-c2ccccc21
T/C (dose: 100.0 mg/kg/injection, schedule: Q01DX009 (ip), vehicle: saline): 102 % of control | T/C (dose: 100.0 mg/kg/injection, schedule: Q04DX003 (ip), vehicle: acetone): 98 % of control | T/C (dose: 200.0 mg/kg/injection, schedule: Q01DX009 (ip), vehicle: saline): 89 % of control | T/C (dose: 200.0 mg/kg/injection, schedule: Q04DX003 (ip), vehicle: acetone): 104 % of control | T/C (dose: 400.0 mg/kg/injection, schedule: Q01DX009 (ip), vehicle: saline): 100 % of control | T/C (dose: 400.0 mg/kg/injection, schedule: Q04DX003 (ip), vehicle: acetone): 94 % of control

O=[N+]([O-])c1ccc2c(c1[N+](=O)[O-])CCCC2
T/C [6]: 93 % of control | T/C [7]: 93 % of control | T/C [8]: 98 % of control | T/C [9]: 93 % of control | T/C (dose: 400.0 mg/kg/injection, schedule: Q01DX009 (ip), vehicle: saline with Tween-80): 98 % of control | T/C [10]: 98 % of control

CC1(C)N=C(N)Nc2nnc(-c3ccc(Cl)cc3)n21
T/C [7]: 97 % of control | T/C [9]: 97 % of control | T/C [10]: 94 % of control

CCNC(=O)N(Cc1ccccc1)Cc1ccccc1
T/C [6]: 98 % of control | T/C [8]: 93 % of control

O=[N+]([O-])c1cccc(Cl)c1Oc1cc(Cl)c(Cl)cc1Cl
T/C [4]: 105 % of control | T/C [1]: 105 % of control | T/C (dose: 5.0 mg/kg/injection, schedule: Q01DX001 (ip), vehicle: saline): 102 % of control | T/C [5]: 96 % of control

CCCN=Cc1cc(Cl)ccc1O.CCCN=Cc1cc(Cl)ccc1O.[Ni]
T/C (dose: 100.0 mg/kg/injection, schedule: Q01DX008 (sc), vehicle: olive oil, sesame oil, peanut oil): 104 % of control | T/C (dose: 200.0 mg/kg/injection, schedule: Q01DX008 (sc), vehicle: olive oil, sesame oil, peanut oil): 98 % of control | T/C (dose: 400.0 mg/kg/injection, schedule: Q01DX008 (sc), vehicle: olive oil, sesame oil, peanut oil): 86 % of control

— PubChem BioAssay AID248 (DTP/NCI, 2004)
